Assay results published in the NIST ThermoML archive (doi:10.1016/j.jct.2016.11.029).
Numbers after ± are expanded uncertainties.

Assays:
[1] = Crystal; DTA
[2] = Molar enthalpy of transition or fusion; settings: Crystal; DSC

Clc1ccc2c(c1)Nc1ccccc1S2 [2-chlorophenothiazine]
Normal melting temperature [1]: 199.80 ± 1.1 °C | Molar enthalpy of transition or fusion [2]: 5.16 ± 0.22 kcal/mol
